Structures are written as SMILES. A value given as a limit tells only on which side of the number the result lay.

This assay concerns the target T1, N-terminally GST-tagged human full length recombinant Mps-1 kinase (Homo sapiens, UniProt P33981).
T1 construct: N-terminally GST-tagged human full length recombinant Mps-1 kinase; purchased Invitrogen, Karslruhe, Germany PV4071
T1 sequence (P33981 1-857): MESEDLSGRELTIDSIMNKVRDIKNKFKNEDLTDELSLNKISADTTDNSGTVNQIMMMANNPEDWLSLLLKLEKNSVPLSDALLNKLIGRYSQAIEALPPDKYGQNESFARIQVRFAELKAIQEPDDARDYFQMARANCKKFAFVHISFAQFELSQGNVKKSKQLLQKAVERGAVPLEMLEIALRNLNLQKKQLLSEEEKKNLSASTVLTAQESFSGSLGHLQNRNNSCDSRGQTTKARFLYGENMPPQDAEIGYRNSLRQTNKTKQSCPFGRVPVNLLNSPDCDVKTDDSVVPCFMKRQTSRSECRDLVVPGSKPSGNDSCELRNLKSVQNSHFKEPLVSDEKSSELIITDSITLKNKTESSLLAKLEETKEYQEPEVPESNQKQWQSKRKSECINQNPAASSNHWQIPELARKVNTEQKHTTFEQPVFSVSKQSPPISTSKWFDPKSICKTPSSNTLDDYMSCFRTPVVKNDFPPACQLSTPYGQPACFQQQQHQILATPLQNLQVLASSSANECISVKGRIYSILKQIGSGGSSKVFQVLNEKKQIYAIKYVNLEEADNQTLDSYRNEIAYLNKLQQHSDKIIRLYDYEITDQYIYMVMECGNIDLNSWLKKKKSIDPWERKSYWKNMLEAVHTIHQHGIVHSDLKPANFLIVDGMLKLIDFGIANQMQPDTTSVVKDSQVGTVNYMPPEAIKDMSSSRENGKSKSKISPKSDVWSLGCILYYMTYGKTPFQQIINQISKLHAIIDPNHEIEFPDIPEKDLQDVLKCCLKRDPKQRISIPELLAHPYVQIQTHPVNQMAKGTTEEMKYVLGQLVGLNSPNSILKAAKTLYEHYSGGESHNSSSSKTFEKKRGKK
As to the kind of experiment: Mps-1 kinase assay (TR-FRET). Particulars: Mps1 IC50 [nM], 10 μM ATP, 1 μM peptide substrate, 60 min at 22° C. Type of assay: biochemical. As to the method: The human kinase Mps-1 phosphorylates a biotinylated substrate peptide. Detection of the phosphorylated product is achieved by time-resolved fluorescence resonance energy transfer (TR-FRET) from Europium-labelled anti-phospho-Serine/Threonine antibody as donor to streptavidin labelled with cross-linked allophycocyanin (SA-XLent) as acceptor. Compounds are tested for their inhibition of the kinase activity.
N-terminally GST-tagged human full length recombinant Mps-1 kinase (purchased from Invitrogen, Karslruhe, Germany, cat. no PV4071) was used. As substrate for the kinase reaction a biotinylated peptide of the amino-acid sequence […] (C-terminus in amide form, purchased from Biosynthan GmbH, Berlin) was used.
The concentration of Mps-1 in the assay was adjusted to the activity of the enzyme lot and was chosen appropriate to have the assay in the linear range, typical enzyme concentrations were in the range of about 1 nM (final conc. in the 5 μl assay volume).
The resulting mixture was incubated 1 h at 22° C. to allow the binding of the phosphorylated peptide to the anti-phospho(Ser/Thr)-Europium-antibody. Subsequently the amount of phosphorylated substrate was evaluated by measurement of the resonance energy transfer from the Europium-labelled anti-phospho(Ser/Thr) antibody to the Streptavidin-XLent.
In general terms: TR-FRET usually uses a lanthanide donor and a delayed reading to cut background.
For `Cc1cc(-c2cnc3c(NCCC(F)(F)F)cc(Oc4cccc(C(C)C)c4O)nn23)ccc1C(=O)NC1CC1` [Example 441, N-cyclopropyl-4-{6-[2-hydroxy-3-(propan-2-yl)phenoxy]-8-[(3,3,3-trifluoropropyl)amino]imidazo[1,2-b]pyridazin-3-yl}-2-methylbenzamide], the IC50 was 0.5 nM.

In the case of `Cc1cc(-c2cnc3c(NCC(C)(C)O)cc(Oc4cccc(F)c4)nn23)ccc1C(=O)NC1CC1` [Example 75, N-cyclopropyl-4-{6-(3-fluorophenoxy)-8-[(2-hydroxy-2-methylpropyl)amino]imidazo[1,2-b]pyridazin-3-yl}-2-methylbenzamide], the IC50 is under 0.7 nM.

In the case of `COC(C)(C)CNc1cc(-c2ccnn2C)nn2c(-c3ccc(C(=O)NC4CC4)c(C)c3)cnc12` [Example 39, N-cyclopropyl-4-{8-[(2-methoxy-2-methylpropyl)amino]-6-(1-methyl-1H-pyrazol-5-yl)imidazo[1,2-b]pyridazin-3-yl}-2-methylbenzamide], the IC50 turned out to be 3.7 nM.

With `CC(C)CNc1cc(Cl)nn2c(-c3ccc(C(=O)NC4CC4)c(Cl)c3)cnc12` [Example 181, 2-Chloro-4-{6-chloro-8-[(2-methylpropyl)amino]imidazo[1,2-b]pyridazin-3-yl}-N-cyclopropyl-benzamide], the IC50 was found to be 39.9 nM.

For `C=Cc1cc(NCCC(F)(F)F)c2ncc(-c3ccc(C(=O)NC4CC4)c(C)c3)n2n1` [Example 41, N-cyclopropyl-2-methyl-4-{8-[(3,3,3-trifluoropropyl)amino]-6-vinylimidazo[1,2-b]pyridazin-3-yl}benzamide], the IC50 was found to be 7.1 nM.

`Cc1ccc(F)cc1Nc1cc(NCCC(F)(F)F)c2ncc(-c3ccc(C(=O)NC4CC4)c(C)c3)n2n1` [Example 375, N-cyclopropyl-4-{6-[(5-fluoro-2-methylphenyl)amino]-8-[(3,3,3-trifluoropropyl)amino]imidazo[1,2-b]pyridazin-3-yl}-2-methylbenzamide]: the IC50 is 0.1 nM.

As to `Cc1cc(-c2cnc3c(NCC(C)(C)O)cc(Oc4ccc(N5CCN(C(=O)OC(C)(C)C)CC5)cc4)nn23)ccc1C(=O)NC1CC1` [Example 322, tert-butyl 4-[4-({3-[4-(cyclopropyl-carbamoyl)-3-methyl-phenyl]-8-[(2-hydroxy-2-methylpropyl)amino]imidazo[1,2-b]pyridazin-6-yl}oxy)phenyl]piperazine-1-carboxylate], the IC50 amounted to 70.6 nM.

As to `Cc1cc(-c2cnc3c(NCC(C)(C)O)cc(Nc4ccc(CCO)cc4)nn23)ccc1C(=O)NC1CC1` [Example 386, N-cyclopropyl-4-(6-{[4-(2-hydroxyethyl)phenyl]amino}-8-[(2-hydroxy-2-methylpropyl)amino]imidazo[1,2-b]pyridazin-3-yl)-2-methylbenzamide], the IC50 worked out at 1.5 nM.

Take `COc1ccc(Nc2cc(NCCC(F)(F)F)c3ncc(-c4ccc(C(=O)NC5CC5)c(C)c4)n3n2)cn1` [Example 429, N-cyclopropyl-4-{6-[(6-methoxypyridin-3-yl)amino]-8-[(3,3,3-trifluoropropyl)amino]imidazo[1,2-b]pyridazin-3-yl}-2-methylbenzamide]: the IC50 is 0.1 nM.

As for `Cc1cc(-c2cnc3c(NCC(C)C)cc(SCC4CCCO4)nn23)ccc1C(=O)NC1CC1` (racemic) [Example 194, (RS)—N-cyclopropyl-2-methyl-4-{8-[(2-methylpropyl)amino]-6-[(tetrahydrofuran-2-ylmethyl)sulfanyl]imidazo[1,2-b]pyridazin-3-yl}benzamide], the IC50 came to 2.5 nM.

For the molecule `CNC(=O)N(C)CCCNc1cc(Oc2cccc(F)c2)nn2c(-c3ccc(C(=O)NC4CC4)c(C)c3)cnc12` [Example 503, N-cyclopropyl-4-[6-(3-fluoro-phenoxy)-8-({3-[methyl(methyl-carbamoyl)amino]propyl}amino)imidazo[1,2-b]pyridazin-3-yl]-2-methylbenzamide], the IC50 came to 0.2 nM.

`CNC(=O)c1ccc(-c2cnc3c(NCCC(F)(F)F)cc(Oc4ccc(OC)cc4F)nn23)cc1C` [Example 576, 4-{6-(2-fluoro-4-methoxyphenoxy)-8-[(3,3,3-trifluoropropyl)a-mino]imidazo[1,2-b]pyridazin-3-yl}-N,2-dimethylbenzamide]: the IC50 was under 1 nM.

Consider `Cc1ccc(Cl)cc1Nc1cc(NCCCC(F)(F)F)c2ncc(-c3ccc(C(=O)NC4CC4)c(C)c3)n2n1` [Example 451, 4-{6-[(5-chloro-2-methylphenyl)amino]-8-[(4,4,4-trifluorobutyl)amino]imidazo[1,2-b]pyridazin-3-yl}-N-cyclopropyl-2-methylbenzamide], for which the IC50 was determined as 1.3 nM.

Take `Cc1cc(-c2cnc3c(NCC4CCS(=O)(=O)CC4)cc(Oc4cccnc4)nn23)ccc1C(=O)NC1CC1` [Example 296A, N-cyclopropyl-4-[8-{[(1,1-dioxidotetrahydro-2H-thiopyran-4-yl)methyl]amino}-6-(pyridin-3-yloxy)imidazo[1,2-b]pyridazin-3-yl]-2-methylbenzamide]: the IC50 worked out at 0.5 nM.

With `CNC(=O)c1ccc(-c2cnc3c(NCCN4CCOCC4)cc(Oc4cc(F)ccc4C)nn23)cc1C` [Example 566, 4-[6-(5-fluoro-2-methylphenoxy)-8-{[2-(morpholin-4-yl)ethyl]amino}imidazo[1,2-b]pyridazin-3-yl]-N,2-dimethylbenzamide], the half-inhibitory concentration (IC50) was 1.7 nM.

In the case of `Cc1cc(-c2cnc3c(NCC(C)(C)O)cc(O/C=C(/F)C(F)(F)CO)nn23)ccc1C(=O)NC1CC1` [Example 241B, N-cyclopropyl-4-(8-[(2-hydroxy-2-methylpropyl)amino]-6-{[(1E)-2,3,3-trifluoro-4-hydroxybut-1-en-1-yl]oxy}imidazo[1,2-b]pyridazin-3-yl)-2-methylbenzamide], the IC50 stood at 3.4 nM.

As for `CC(C)(O)CNc1cc(-c2ccccc2)nn2c(-c3ccc(C(=O)NC4CC4)cc3)cnc12` [Example 14, N-cyclopropyl-4-{8-[(2-hydroxy-2-methylpropyl)amino]-6-phenylimidazo[1,2-b]pyridazin-3-yl}benzamide], the IC50 is 1.2 nM.

Consider `Cc1cc(-c2cnc3c(NCCC(F)(F)F)cc(Oc4ccc(Cl)cc4)nn23)ccc1C(=O)NC1CC1` [Example 267, 4-{6-(4-chlorophenoxy)-8-[(3,3,3-trifluoropropyl)amino]imidazo[1,2-b]pyridazin-3-yl}-N-cyclopropyl-2-methylbenzamide], for which the IC50 came to 0.3 nM.

With `CC(C)CNc1cc(Cl)nn2c(-c3ccc(C(=O)NC(C)C)cc3)cnc12` [Example 179, 4-{6-Chloro-8-[(2-methylpropyl)amino]imidazo[1,2-b]pyridazin-3-yl}-N-(propan-2-yl)benzamide], the IC50 worked out at 601 nM.

Take `COc1cc(Nc2cc(NCC(C)(C)O)c3ncc(-c4ccc(C(=O)NC5CC5)c(C)c4)n3n2)ccc1F` [Example 400, N-cyclopropyl-4-{6-[(4-fluoro-3-methoxyphenyl)amino]-8-[(2-hydroxy-2-methylpropyl)amino]imidazo[1,2-b]pyridazin-3-yl}-2-methylbenzamide]: the IC50 turned out to be 3.1 nM.

On to `NC(=O)c1ccc(-c2cnc3c(NCc4cccs4)cc(Cl)nn23)cc1` [Example 191, 4-{6-Chloro-8-[(thiophen-2-yl-methyl)amino]imidazol[1,2-b]pyridazin-3-yl}benzamide], for which the IC50 is at least 20000 nM.

Usually IC50 stands for the midpoint of a concentration-inhibition curve.

For the origin of these results see patent US9255100B2 (BAYER INTELLECTUAL PROPERTY GMBH, priority 2010, dated 2016).
